From patent US8729032B2, “Self-assembling peptide and peptide gel with high strength” (Menicon Co., Ltd., priority 2009, dated 2014) come the findings set out here.

For one assay, the system named is mouse myoblasts (L6). Briefly: Cell culture in peptide gel, DNA quantification (CyQUANT), cell growth rate. The format is cell-based. The conditions noted are these: rate immediately after start = 100%, peptide 0.4 w/v %, average of n=3. From the text: A cell suspension including mouse myoblasts (L6) at a cell concentration of 2.0×10^6 cells/ml and a peptide aqueous solution including the modified peptide 1 at 1.0 w/v % were mixed with each other at a volume ratio of 3:2 (cell suspension:peptide aqueous solution). The resultant mixture (cell concentration: 1.2×10^6 cells/ml, peptide concentration: 0.4 w/v %) was charged into a Cell Culture Insert (product number “353096” manufactured by BD Falcon) and left to stand still at room temperature for approximately 1 minute to form a peptide gel. The gel in the Cell Culture Insert was directly set in wells of a 24-well plate for tissue culture (product number “3820-024” manufactured by AGC TECHNO GLASS CO., LTD.) with 1 mL of a DMEM medium containing 10% calf serum. Next, cell culture was carried out in an incubator at 37° C. in the presence of 5% CO2. Medium exchange was carried out only once on Day 2 after the start of culture. The gel was collected on Days 1, 2, and 4 after the start of culture, and DNA quantification was carried out using a trade name “CyQUANT (registered trademark) Cell Proliferation Assay Kit*for cells in culture**1000 assays*” (product number “C7026” manufactured by Invitrogen), to thereby calculate cell growth rates. The cell growth rates on Days 1, 2, and 4 after the start of culture were 150%, 180%, and 310%, respectively, when the cell growth rate immediately after the start of culture was defined as 100%, that is, the number of cells increased in accordance with a lapse of days (an average of n=3 was used for the calculation results).

Another assay relates to mouse NIH3T3 cells. Briefly: Cell culture in autoclaved peptide gel, Cell Counting Kit 8, cell growth rate. Type of assay: cell-based. The conditions noted are these: Day 0 (Hour 2), Day 1, Day 3, Day 5; gel from 0.5 w/v % solution autoclaved at 121° C. for 20 minutes; FIG. 9. The procedure:
The modified peptide 1 was dissolved in a sodium carbonate solution to prepare a 0.5 w/v % peptide aqueous solution (final concentration of sodium carbonate: 2.75 mM). The peptide aqueous solution was subjected to sterilization treatment at 121° C. for 20 minutes using an autoclave apparatus (product number “MLS 3020” manufactured by SANYO Electric Co., Ltd.) to afford a peptide gel. The gel and a cell suspension obtained by suspending mouse NIH3T3 cells in a DMEM medium were uniformly mixed with each other at a volume ratio of 2:1 (gel:cell suspension) by pipetting. […] Cell growth rates were measured using a trade name “Cell Counting Kit 8” (manufactured by DOJINDO LABORATORIES) on Day 0 (Hour 2), Day 1, Day 3, and Day 5 after the start of culture.
A specific procedure for the measurement of the cell growth rates described above is as described below. […] After the incubation, 100 μL of the medium permeating the gel in the Cell Culture Insert were transferred to a well of a 96-well plate, and the absorbance of the medium at 450 nm was measured using a plate reader. Cell growth rates in the respective culture days were determined with the absorbance of a sample on Day 0 after the start of culture defined as 100.
In general terms: Tetrazolium assays rely on reduction of a dye to a coloured formazan, in cell work by metabolically active cells.

Turning to “[CH3CO]-RLDLRLALRLDLR-[NH2] (Ac-RLDLRLALRLDLR-NH2) [modified peptide 1]”, the values for the cell growth rate in the assay with mouse myoblasts (L6) (Day 1 after start of culture), in the assay on mouse myoblasts (L6) (Day 2 after start of culture) and in the assay on mouse myoblasts (L6) (Day 4 after start of culture) were 150%, 180% and 310%, respectively. In addition, the cell growth rates result with mouse NIH3T3 cells was “increased in accordance with a lapse of culture days”.
Regarding “[CH3CO]-RLDLRLLLRLDLR-[NH2] (Ac-RLDLRLLLRLDLR-NH2) [modified peptide 2]”, the cell growth rate in the assay with mouse myoblasts (L6) (Day 1 after start of culture) turned out to be 140%; with mouse myoblasts (L6) (Day 2 after start of culture), 160%; with mouse myoblasts (L6) (Day 4 after start of culture), 250%.
